Data published in patent publication US8697730B2, “5-lipoxygenase activating protein (FLAP) inhibitor” (Panmira Pharmaceuticals, LLC, priority 2007, dated 2014).

Experiments:
urinary LTE4 production = test: Phase 1 study, urinary LTE4; format: in vivo, human
Method: (§1) Pharmacodynamics: Whole blood ionophore-stimulated leukotriene LTB4 and urinary LTE4 production are assayed by ELISA and mass spectrometry, respectively.
(§2) Obtain pre-dose fasting blood samples for hematology determinations. Obtain pre-dose fasting blood samples for serum chemistry determinations. Obtain pre-dose blood samples (5 mL EDTA and 4 mL heparinized) for baseline PK and LTB4. Collect ‘spot’ urine prior to study drug administration for baseline (pre-dose) LTE4. Administer study drug. […] Collect blood samples (2 mL heparinized) for LTB4 at 0.5, 1, 2, 3, 4, 6, 8, and 12 hours. Collect urine for LTE4 for the following separate intervals: 0-3, 3-6, 6-9, and 9-12 hours. For twice daily dosing group (if conducted): administer study drug 12 hours±30 minutes after prior dose, preceded by ≧2 hours fast.
(§3) Obtain pre-dose fasting blood samples for hematology determinations. Obtain pre-dose fasting blood samples for serum chemistry determinations. […] Collect blood samples (2 mL heparinized) for LTB4 at 24 hours after the first study drug administration; 4 mL blood will be collected at this time point in the Single Dose Phase. Collect ‘spot’ urine sample for LTE4 at 24 and 36 hours after first study drug administration.
(§4) Obtain pre-dose blood samples (5 mL EDTA and 2 mL heparinized) for PK and LTB4. Collect pre-dose urine for LTE4. Administer study drug (last dose of drug). […] Collect blood samples (2 mL heparinized) for LTB4 at 0.5, 1, 2, 3, 4, 6, 8, and 12 hours. Collect urine for LTE4 for the following separate intervals: 0-3, 3-6, 6-9, and 9-12 hours after study drug administration.
(§5) Record vital signs 24 hours after Day 11 study drug administration. […] Collect blood sample (4 mL heparinized) for LTB4 at 24 hours after Day 11 study drug administration. Collect ‘spot’ urine sample for LTE4 at 24 hours after Day 11 study drug administration.
(§6) Whole blood ionophore-stimulated leukotriene LTB4 and urinary LTE4 production were assayed by ELISA and mass spectrometry, respectively.

[1] = test system: whole blood ionophore-stimulated leukotriene LTB4; test: Phase 1 study, whole blood ionophore-stimulated LTB4; format: in vivo, human
Method: as §1, §2, §3, §4, §5, §6

CYP2C9 [2] = settings: tested at 10 μM; diclofenac substrate
[3] = test system: allergen-induced early and late phases of lung-volume decline; settings: clinical trials / allergen-challenge studies; cited from earlier work
[4] = Gravimetric Vapor Sorption (GVS); settings: 25° C.; for hygroscopicity in words: GVS; for total weight change: between 0% RH and 90% RH
[5] = Aqueous solubility determination (thermodynamic solubility); settings: for Appearance of mixture after equilibration for 24 hours: suspended in 0.25 mL of water, 25° C.; for pH of saturated solution / Concentration of filtrate (as mg/ml of free base): water, equilibrated at 25° C. for 24 hours; for Concentration of filtrate (as mg/ml of free base): HPLC
pH solubility profile = format: physicochemical; settings: about 25° C.
[6] = Storage stability of polymorphs; format: physicochemical; settings: for change after 1 week storage (crystallinity / x-ray powder diffraction pattern, colour): 1 week at 40° C. and 75% RH
chronic asthma = chronic asthma studies; cited from earlier work
[7] = Examination of liver weight change in mice; settings: oral 250 mg/kg daily for 4 days, compared with vehicle control
Method: Twenty-four hours following the final administration mice were placed into an enclosed Plexiglas chamber and exposed to CO2 for a period of 1-2 minutes or until breathing ceased. They were then removed and blood was taken via a cardiac puncture and cervical dislocation was performed. Subjects were next placed in a supine position and a midline incision made. All organs were inspected and the livers removed by careful dissection. Liver weights were recorded as well as any gross abnormalities.

CYP2D6 = CYP2D6 (Homo sapiens, UniProt P10635); settings: microsomes
CYP1A2 = molecular target: T1, CYP1A2 (Homo sapiens, UniProt P05177)
T1 sequence (P05177 1-516): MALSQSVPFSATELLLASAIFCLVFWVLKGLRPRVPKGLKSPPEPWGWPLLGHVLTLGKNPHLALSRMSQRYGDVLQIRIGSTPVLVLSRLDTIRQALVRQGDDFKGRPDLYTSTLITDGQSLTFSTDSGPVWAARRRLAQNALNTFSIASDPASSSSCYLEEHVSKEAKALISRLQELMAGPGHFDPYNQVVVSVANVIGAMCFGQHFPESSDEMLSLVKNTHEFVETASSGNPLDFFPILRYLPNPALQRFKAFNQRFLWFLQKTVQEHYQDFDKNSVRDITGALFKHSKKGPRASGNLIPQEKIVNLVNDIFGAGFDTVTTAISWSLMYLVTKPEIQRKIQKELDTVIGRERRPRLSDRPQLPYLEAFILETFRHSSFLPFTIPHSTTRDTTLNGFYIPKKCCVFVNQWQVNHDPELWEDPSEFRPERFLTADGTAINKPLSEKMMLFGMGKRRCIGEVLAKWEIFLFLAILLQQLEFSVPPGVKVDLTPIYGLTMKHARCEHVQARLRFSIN

CYP2C19 = CYP2C19 (Homo sapiens, UniProt P33261); settings: microsomes
CYP2C9 [8] = molecular target: CYP2C9 (Homo sapiens, UniProt P11712); settings: microsomes
CYP3A4 = CYP3A4 (Homo sapiens, UniProt P08684); settings: microsomes
[9] = Cycle 1, Scan 1, Adsorption, % RH load to 40
[10] = Cycle 1, Scan 2, Adsorption, % RH 0 to 40
[11] = Cycle 1, Scan 2, Adsorption, % RH 40 to 90
[12] = Cycle 1, Scan 2, Desorption, % RH 90 to 0
[13] = Cycle 2, Scan 3, Adsorption, % RH 40 to 90
[14] = Cycle 2, Scan 4, Adsorption, % RH 0 to 40
[15] = Cycle 2, Scan 4, Desorption, % RH 90 to 0
[16] = profile that may be obtained from a single dose administration to a human, dose not stated

Sequence of CYP3A4 (P08684 whole entry): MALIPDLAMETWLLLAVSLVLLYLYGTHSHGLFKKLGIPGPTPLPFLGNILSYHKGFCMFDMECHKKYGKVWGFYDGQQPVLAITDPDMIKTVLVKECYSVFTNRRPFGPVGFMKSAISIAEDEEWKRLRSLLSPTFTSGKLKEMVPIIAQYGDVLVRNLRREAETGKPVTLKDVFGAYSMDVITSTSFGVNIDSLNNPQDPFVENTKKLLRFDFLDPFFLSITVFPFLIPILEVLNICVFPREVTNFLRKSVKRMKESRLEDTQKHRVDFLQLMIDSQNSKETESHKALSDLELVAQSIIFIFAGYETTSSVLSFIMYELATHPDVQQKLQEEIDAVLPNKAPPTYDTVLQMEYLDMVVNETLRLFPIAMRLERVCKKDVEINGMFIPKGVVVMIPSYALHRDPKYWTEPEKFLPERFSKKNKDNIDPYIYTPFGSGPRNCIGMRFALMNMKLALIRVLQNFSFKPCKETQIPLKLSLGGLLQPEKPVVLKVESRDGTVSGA
Sequence of CYP2C19 (P33261 whole entry): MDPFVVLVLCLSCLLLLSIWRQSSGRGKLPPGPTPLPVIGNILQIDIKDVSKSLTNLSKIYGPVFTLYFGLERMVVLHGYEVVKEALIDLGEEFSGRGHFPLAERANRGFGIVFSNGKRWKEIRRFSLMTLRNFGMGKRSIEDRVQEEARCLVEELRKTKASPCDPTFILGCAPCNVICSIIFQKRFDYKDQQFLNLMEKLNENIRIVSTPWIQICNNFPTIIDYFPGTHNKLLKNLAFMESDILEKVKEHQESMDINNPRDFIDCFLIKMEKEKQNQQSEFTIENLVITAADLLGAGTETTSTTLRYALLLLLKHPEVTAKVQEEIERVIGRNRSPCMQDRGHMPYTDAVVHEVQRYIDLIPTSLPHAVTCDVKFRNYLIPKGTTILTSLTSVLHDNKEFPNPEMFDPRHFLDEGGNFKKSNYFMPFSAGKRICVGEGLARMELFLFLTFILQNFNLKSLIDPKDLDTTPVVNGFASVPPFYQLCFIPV
Sequence of CYP2D6 (P10635 whole entry): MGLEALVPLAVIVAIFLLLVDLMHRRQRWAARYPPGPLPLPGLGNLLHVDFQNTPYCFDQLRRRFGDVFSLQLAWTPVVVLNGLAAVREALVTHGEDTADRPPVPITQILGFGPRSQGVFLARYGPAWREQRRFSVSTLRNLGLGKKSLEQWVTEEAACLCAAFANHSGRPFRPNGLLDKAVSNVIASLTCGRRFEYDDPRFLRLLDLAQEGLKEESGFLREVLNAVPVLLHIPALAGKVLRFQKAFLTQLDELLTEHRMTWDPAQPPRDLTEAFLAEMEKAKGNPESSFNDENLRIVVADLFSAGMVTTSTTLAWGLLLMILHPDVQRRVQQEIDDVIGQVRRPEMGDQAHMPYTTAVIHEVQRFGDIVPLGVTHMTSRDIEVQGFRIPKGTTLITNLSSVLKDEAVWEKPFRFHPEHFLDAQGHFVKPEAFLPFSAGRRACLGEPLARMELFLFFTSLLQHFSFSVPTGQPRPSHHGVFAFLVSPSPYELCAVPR
Sequence of CYP2C9 (Homo sapiens, UniProt P11712) (P11712 whole entry): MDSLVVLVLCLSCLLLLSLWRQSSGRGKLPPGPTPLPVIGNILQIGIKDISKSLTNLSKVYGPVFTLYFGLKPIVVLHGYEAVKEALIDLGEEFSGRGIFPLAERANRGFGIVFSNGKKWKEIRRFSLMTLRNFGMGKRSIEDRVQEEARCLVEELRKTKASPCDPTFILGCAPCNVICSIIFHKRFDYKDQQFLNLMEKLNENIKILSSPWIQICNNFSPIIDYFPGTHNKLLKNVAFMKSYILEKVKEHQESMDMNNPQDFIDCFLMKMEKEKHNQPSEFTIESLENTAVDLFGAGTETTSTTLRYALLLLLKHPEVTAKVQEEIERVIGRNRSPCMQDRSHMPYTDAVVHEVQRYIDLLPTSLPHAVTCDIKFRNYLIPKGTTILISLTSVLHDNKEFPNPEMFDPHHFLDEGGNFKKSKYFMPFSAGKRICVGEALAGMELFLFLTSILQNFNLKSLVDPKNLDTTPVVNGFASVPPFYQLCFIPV

Structure (SMILES): COc1ccc(-c2ccc(Cn3c(CC(C)(C)C(=O)O)c(SC(C)(C)C)c4cc(OCc5ccccn5)ccc43)cc2)cn1
- effect on LTE4 levels in humans, in words (urinary LTE4 production; clinical trial summary): lowers
- effect on LTB4 levels in humans, in words ([1]; clinical trial summary): lowers

Structure (SMILES): COc1ccc(-c2ccc(Cn3c(CC(C)(C)C(=O)O)c(SC(C)(C)C)c4cc(OCc5ccccn5)ccc43)cc2)cn1 [3-[5-(pyridin-2-ylmethoxy)-3-(2-methyl-2-propylthio)-1-[4-(2]
- CYP2C9 induction in words (CYP2C9 [2]): not an inducer

Structure (SMILES): O=C(O)[C@@H](c1ccc(OCc2ccc3ccccc3n2)cc1)C1CCCC1 [BAYX-1005, (R)-2-[4-(quinolin-2-yl-methoxy)phenyl]-2-cyclopentyl acetic acid]
- efficacy in words [3]: shown efficacy

Structure (SMILES): COc1ccc(-c2ccc(Cn3c(CC(C)(C)C(=O)O)c(SC(C)(C)C)c4cc(OCc5ccccn5)ccc43)cc2)cn1 [Crystalline Free Acid]
- stability to changes in humidity (XRPD after GVS experiment) [4]: stable to changes in humidity
- % weight change ([4]; Cycle 1, Scan 1, Adsorption, % RH load to 40, listed as crystalline 3-[5-(pyridin-2-ylmethoxy)-3-(2-methyl-2-propylthio)-1-[4-(2-methoxy)): 0.00%
- % weight change ([4]; Cycle 1, Scan 2, Adsorption, % RH 0 to 40, listed as crystalline 3-[5-(pyridin-2-ylmethoxy)-3-(2-methyl-2-propylthio)-1-[4-(2-methoxy)): 0.07%
- % weight change ([4]; Cycle 1, Scan 2, Adsorption, % RH 40 to 90, listed as crystalline 3-[5-(pyridin-2-ylmethoxy)-3-(2-methyl-2-propylthio)-1-[4-(2-methoxy)): 0.34%
- % weight change ([4]; Cycle 1, Scan 2, Desorption, % RH 90 to 0, listed as crystalline 3-[5-(pyridin-2-ylmethoxy)-3-(2-methyl-2-propylthio)-1-[4-(2-methoxy)): −0.42%
- % weight change ([4]; Cycle 2, Scan 3, Adsorption, % RH 40 to 90, listed as crystalline 3-[5-(pyridin-2-ylmethoxy)-3-(2-methyl-2-propylthio)-1-[4-(2-methoxy)): 0.29%
- % weight change ([4]; Cycle 2, Scan 4, Adsorption, % RH 0 to 40, listed as crystalline 3-[5-(pyridin-2-ylmethoxy)-3-(2-methyl-2-propylthio)-1-[4-(2-methoxy)): 0.08%
- % weight change ([4]; Cycle 2, Scan 4, Desorption, % RH 90 to 0, listed as crystalline 3-[5-(pyridin-2-ylmethoxy)-3-(2-methyl-2-propylthio)-1-[4-(2-methoxy)): −0.40%
- hygroscopicity in words ([4]; listed as Crystalline 3-[5-(pyrid-2-ylmethoxy)-3-(2-methyl-2-propylthio)-1-[4-(2-methoxypy)): not hygroscopic
- Appearance of mixture after equilibration for 24 hours [5]: Suspension
- pH of saturated solution [5]: 7.88
- Concentration of filtrate (as mg/ml of free base) [5]: 0.0019 mg/mL

Structure (SMILES): COc1ccc(-c2ccc(Cn3c(CC(C)(C)C(=O)O)c(SC(C)(C)C)c4cc(OCc5ccccn5)ccc43)cc2)cn1 [Form B]
- stability to changes in humidity (XRPD after GVS experiment) [4]: stable to changes in humidity
- % weight change [4, 9]: −1.54%
- % weight change [4, 10]: 3.73%
- % weight change [4, 11]: 20.92%
- % weight change [4, 12]: −25.51%
- % weight change [4, 13]: 20.72%
- % weight change [4, 14]: 3.66%
- % weight change [4, 15]: −24.45%
- hygroscopicity in words [4]: very hygroscopic
- total weight change [4]: 26%
- Appearance of mixture after equilibration for 24 hours [5]: Fine Suspension
- pH of saturated solution [5]: 9.95
- Concentration of filtrate (as mg/ml of free base) [5]: 5.4 mg/mL
- Concentration (mg/mL) (pH solubility profile; pH about 1.1): about 0.690 mg/mL
- Concentration (mg/mL) (pH solubility profile; pH about 4.9): about 0.0594 mg/mL
- Concentration (mg/mL) (pH solubility profile; pH about 8.8): about 0.00573 mg/mL
- Concentration (mg/mL) (pH solubility profile; pH about 9.2): about 9.80 mg/mL
- Concentration (mg/mL) (pH solubility profile; pH about 9.8): about 53.1 mg/mL
- Concentration (pH solubility profile; pH about 10.4): >70000 µg/mL
- change after 1 week storage (crystallinity / x-ray powder diffraction pattern, colour) [6]: loses its crystallinity and the colour changes to yellow
- physical and chemical stability ([6]; conditions not stated): physically and chemically stable

Structure (SMILES): COc1ccc(-c2ccc(Cn3c(CC(C)(C)C(=O)O)c(SC(C)(C)C)c4cc(OCc5ccccn5)ccc43)cc2)cn1 [Form C]
- stability to changes in humidity (XRPD after GVS experiment) [4]: stable to changes in humidity
- % weight change [4, 9]: −0.37%
- % weight change [4, 10]: 1.98%
- % weight change [4, 11]: 13.83%
- % weight change [4, 12]: −16.23%
- % weight change [4, 13]: 14.52%
- % weight change [4, 14]: 2.01%
- % weight change [4, 15]: −16.51%
- hygroscopicity in words [4]: hygroscopic
- total weight change [4]: 16%
- aqueous solubility compared between forms [5]: more soluble than Form B and the crystalline free acid
- Appearance of mixture after equilibration for 24 hours [5]: Fine Suspension
- pH of saturated solution [5]: 10.05
- Concentration of filtrate (as mg/ml of free base) [5]: >10 mg/mL
- change after 1 week storage (crystallinity / x-ray powder diffraction pattern, colour) [6]: No change
- physical and chemical stability ([6]; 5° C., 25° C./60% RH and 40° C./75% RH for at least two months): physically and chemically stable

Structure (SMILES): CC(C)(C)Sc1c(CC(C)(C)C(=O)O)n(Cc2ccc(Cl)cc2)c2ccc(OCc3ccc4ccccc4n3)cc12 [MK-0591, 3-[1-(4-chlorobenzyl)-3-(tert-butylthio)-5-(quinolin-2-ylmethoxy)indol-2-yl]-2,2-dimethyl propanoic acid]
- efficacy in words (chronic asthma): shown efficacy
- efficacy in words [3]: shown efficacy

Structure (SMILES): CC(C)c1ccc2c(c1)c(SC(C)(C)C)c(CC(C)(C)C(=O)O)n2Cc1ccc(Cl)cc1 [MK-866, 3-[1-(4-chlorobenzyl)-3-(tert-butylthio)-5-(isopropyl)-indol-2-yl]-2,2-dimethyl propanoic acid]
- efficacy in words [3]: shown efficacy

Structure (SMILES): CC(c1cc2ccccc2s1)N(O)C(N)=O (stereo not drawn) [Zileuton]
- efficacy in words (chronic asthma): exhibited clinical efficacy
- efficacy in words [3]: not effective
- liver weight alteration [7]: 36.0%

Structure (SMILES): COc1ccc(-c2ccc(Cn3c(CC(C)(C)C(=O)O)c(SC(C)(C)C)c4cc(OCc5ccccn5)ccc43)cc2)cn1 [sodium 3-[5-(pyrid-2-ylmethoxy)-3-(2-methyl-2-propylthio)-1-] [sodium 3-[5-(pyridin-2-ylmethoxy)-3-(2-methyl-2-propylthio)-1-[4-(2-methoxypyridin-5-yl)benzyl]-indol-2-yl]-2,2-dimethyl-propionate]
- inhibition of urinary LTE4 levels at 24 hours (urinary LTE4 production; [16]): ≥ 80%
- inhibition in words (CYP2D6): No apparent inhibition
- CYP2C9 induction in words (CYP2C9 [2]): No apparent induction
- inhibition in words (CYP1A2): No apparent inhibition
- inhibition in words (CYP2C19): weakly inhibited
- inhibition in words (CYP2C9 [8]): No apparent inhibition
- IC50 (CYP3A4; human, pH 7.4): > 50 µM
- inhibition in words (CYP3A4): No apparent inhibition
- inhibition of blood LTB4 levels at 8 hours (Ionophore Challenge) [1, 16]: ≥ 80%
- inhibition of blood LTB4 levels at 24 hours (Ionophore Challenge) [1, 16]: ≥ 30%
